Among the data in ChEMBL document CHEMBL5653631, “A Potent and Selective ULK1 Inhibitor Suppresses Autophagy and Sensitizes Cancer Cells to Nutrient Stress” (iScience, 2018) are inhibition and fold change (FC) values, retold here.

Test [1] deals with Dual specificity mitogen-activated protein kinase kinase 1 (Homo sapiens) (UniProt Q02750). Nature of the test: Inhibition of human recombinant MAP2K1 at 15 nM in presence of ATP by radiometric assay relative to control.
In test [2] the target is T1, Testis-specific serine/threonine-protein kinase 2 (Homo sapiens) (UniProt Q96PF2).
T1 sequence (whole entry): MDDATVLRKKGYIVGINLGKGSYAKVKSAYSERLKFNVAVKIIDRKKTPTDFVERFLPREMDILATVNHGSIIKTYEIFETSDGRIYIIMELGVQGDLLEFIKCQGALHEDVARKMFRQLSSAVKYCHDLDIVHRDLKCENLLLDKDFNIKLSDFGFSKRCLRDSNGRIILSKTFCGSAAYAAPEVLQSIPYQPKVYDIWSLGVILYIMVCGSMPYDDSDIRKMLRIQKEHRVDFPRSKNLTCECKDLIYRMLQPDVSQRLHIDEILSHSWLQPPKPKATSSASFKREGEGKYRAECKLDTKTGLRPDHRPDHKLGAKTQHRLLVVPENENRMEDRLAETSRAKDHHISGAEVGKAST
Nature of the test: Inhibition of human recombinant TSSK2 at 15 nM related to control ULK1.

In test [3] the target is T2, Tyrosine-protein kinase receptor TYRO3 (Homo sapiens) (UniProt Q06418).
T2 sequence (whole entry): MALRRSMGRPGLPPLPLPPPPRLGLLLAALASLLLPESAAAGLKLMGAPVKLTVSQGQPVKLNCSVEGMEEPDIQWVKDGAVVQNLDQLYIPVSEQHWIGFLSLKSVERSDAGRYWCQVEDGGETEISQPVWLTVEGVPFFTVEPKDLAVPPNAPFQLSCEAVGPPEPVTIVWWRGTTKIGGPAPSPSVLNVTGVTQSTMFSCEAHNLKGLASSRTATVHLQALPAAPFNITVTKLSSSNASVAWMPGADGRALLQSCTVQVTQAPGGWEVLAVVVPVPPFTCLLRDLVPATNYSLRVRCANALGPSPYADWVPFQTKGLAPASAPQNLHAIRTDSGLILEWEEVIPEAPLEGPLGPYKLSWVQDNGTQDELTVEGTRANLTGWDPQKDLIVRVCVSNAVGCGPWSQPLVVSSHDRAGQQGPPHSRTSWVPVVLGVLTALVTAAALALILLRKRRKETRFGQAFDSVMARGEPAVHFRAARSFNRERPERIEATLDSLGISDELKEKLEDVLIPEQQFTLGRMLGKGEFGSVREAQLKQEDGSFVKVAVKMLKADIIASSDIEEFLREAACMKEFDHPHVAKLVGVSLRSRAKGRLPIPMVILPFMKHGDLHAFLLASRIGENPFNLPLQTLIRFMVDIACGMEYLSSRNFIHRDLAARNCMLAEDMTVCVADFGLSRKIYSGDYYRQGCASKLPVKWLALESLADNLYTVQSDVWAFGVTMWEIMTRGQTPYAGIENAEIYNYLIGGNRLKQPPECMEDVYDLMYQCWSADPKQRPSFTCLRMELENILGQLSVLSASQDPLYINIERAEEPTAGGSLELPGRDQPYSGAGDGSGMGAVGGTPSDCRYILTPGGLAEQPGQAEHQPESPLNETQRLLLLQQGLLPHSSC
Nature of the test: Inhibition of human recombinant TYRO3 at 15 nM related to control ULK1.

In test [4] the target is SRSF protein kinase 2 (Homo sapiens) (UniProt P78362). The test is described as follows: Inhibition of human recombinant SRPK2 at 40 nM related to control ULK1.
In test [5] the target is Transcription initiation factor TFIID subunit 1-like (Homo sapiens) (UniProt Q8IZX4). The test is described as follows: Inhibition of human recombinant TAF1L at 40 nM related to control ULK1.
In test [6] the target is T3, Serine/threonine-protein kinase tousled-like 1 (Homo sapiens) (UniProt Q9UKI8).
T3 sequence (whole entry): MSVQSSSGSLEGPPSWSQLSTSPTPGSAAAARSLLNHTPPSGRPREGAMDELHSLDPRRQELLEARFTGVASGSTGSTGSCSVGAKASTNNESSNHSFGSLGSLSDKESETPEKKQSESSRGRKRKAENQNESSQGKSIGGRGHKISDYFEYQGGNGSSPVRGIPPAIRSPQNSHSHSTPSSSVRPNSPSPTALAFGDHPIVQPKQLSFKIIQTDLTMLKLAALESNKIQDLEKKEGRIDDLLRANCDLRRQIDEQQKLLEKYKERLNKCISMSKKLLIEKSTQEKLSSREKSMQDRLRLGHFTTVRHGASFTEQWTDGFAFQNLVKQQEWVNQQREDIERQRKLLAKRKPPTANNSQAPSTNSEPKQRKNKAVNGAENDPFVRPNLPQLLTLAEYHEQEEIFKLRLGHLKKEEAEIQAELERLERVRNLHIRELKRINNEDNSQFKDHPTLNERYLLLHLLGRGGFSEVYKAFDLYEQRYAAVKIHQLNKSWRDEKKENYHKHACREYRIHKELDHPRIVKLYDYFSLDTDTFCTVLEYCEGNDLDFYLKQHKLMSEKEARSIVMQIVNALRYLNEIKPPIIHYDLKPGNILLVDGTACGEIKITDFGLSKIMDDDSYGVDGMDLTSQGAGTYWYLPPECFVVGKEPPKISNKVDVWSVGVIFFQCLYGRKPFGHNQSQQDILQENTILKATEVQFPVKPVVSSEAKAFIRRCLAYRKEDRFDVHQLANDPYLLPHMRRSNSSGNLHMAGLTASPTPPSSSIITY
The test is described as follows: Inhibition of human recombinant TLK1 at 40 nM related to control ULK1.

Test [7] addresses Cyclin-dependent kinase 4 (Homo sapiens) (UniProt P11802). The test is described as follows: Inhibition of human recombinant CDK4 at 500 nM in presence of ATP by radiometric assay relative to control.
The target in test [8] is Casein kinase II subunit alpha (Homo sapiens) (UniProt P68400). The test is described as follows: Inhibition of human recombinant CK2a1 at 500 nM in presence of ATP by radiometric assay relative to control.
Chain of Casein kinase II subunit alpha (Homo sapiens) (P68400 whole entry, looked up): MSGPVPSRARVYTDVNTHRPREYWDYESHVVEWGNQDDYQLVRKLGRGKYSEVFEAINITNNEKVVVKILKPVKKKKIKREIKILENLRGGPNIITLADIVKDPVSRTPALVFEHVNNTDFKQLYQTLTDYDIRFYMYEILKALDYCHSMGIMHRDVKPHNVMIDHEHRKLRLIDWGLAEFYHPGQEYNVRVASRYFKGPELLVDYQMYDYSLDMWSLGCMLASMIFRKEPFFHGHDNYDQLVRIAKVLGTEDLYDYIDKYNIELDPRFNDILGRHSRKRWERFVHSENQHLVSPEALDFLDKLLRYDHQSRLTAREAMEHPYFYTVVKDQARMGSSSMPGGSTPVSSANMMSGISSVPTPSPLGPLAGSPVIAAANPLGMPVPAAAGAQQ

Chain of Transcription initiation factor TFIID subunit 1-like (Homo sapiens) (Q8IZX4 whole entry): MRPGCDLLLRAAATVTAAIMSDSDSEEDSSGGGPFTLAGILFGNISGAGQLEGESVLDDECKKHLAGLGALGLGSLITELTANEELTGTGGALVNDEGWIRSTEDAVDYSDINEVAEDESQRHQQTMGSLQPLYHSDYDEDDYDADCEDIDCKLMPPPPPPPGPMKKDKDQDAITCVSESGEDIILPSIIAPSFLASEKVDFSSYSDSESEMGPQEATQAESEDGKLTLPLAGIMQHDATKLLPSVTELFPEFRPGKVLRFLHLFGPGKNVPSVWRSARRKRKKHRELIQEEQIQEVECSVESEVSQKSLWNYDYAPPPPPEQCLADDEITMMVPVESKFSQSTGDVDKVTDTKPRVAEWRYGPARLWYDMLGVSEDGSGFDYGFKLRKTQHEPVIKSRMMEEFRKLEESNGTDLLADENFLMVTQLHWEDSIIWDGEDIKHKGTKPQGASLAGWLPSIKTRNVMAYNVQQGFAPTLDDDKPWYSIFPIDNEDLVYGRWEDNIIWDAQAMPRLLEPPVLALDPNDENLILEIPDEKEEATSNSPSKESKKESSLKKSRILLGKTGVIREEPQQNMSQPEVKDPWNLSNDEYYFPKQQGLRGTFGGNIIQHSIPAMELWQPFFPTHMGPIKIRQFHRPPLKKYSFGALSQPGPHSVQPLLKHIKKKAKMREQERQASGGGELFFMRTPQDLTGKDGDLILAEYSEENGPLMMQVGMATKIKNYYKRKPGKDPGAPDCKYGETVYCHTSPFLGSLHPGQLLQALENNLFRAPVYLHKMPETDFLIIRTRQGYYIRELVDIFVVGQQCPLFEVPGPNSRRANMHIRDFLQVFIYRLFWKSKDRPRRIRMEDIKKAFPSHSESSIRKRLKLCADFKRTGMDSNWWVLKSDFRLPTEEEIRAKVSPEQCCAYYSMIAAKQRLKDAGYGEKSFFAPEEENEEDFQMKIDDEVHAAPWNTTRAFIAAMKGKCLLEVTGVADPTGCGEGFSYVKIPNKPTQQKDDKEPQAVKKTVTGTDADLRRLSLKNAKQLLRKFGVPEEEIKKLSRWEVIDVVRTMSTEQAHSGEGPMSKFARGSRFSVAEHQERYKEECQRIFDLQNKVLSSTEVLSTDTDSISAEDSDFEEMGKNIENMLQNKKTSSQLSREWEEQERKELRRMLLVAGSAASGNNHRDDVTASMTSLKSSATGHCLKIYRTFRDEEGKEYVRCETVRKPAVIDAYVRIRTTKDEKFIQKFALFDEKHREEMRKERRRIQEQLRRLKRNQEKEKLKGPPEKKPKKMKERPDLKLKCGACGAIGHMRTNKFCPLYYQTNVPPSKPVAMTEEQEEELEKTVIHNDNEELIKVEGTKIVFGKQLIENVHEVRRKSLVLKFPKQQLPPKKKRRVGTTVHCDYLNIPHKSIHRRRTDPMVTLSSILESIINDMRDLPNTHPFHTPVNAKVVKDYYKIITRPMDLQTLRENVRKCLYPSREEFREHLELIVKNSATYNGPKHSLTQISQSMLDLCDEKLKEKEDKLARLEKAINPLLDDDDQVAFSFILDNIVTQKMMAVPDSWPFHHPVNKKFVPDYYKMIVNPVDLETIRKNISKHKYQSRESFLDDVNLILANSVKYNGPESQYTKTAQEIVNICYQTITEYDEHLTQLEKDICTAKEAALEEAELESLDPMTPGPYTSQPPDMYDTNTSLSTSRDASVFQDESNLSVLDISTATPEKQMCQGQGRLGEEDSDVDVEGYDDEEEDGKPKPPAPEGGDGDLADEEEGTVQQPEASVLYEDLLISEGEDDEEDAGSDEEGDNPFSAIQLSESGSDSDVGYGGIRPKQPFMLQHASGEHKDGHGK
Chain of SRSF protein kinase 2 (Homo sapiens) (P78362 whole entry, looked up): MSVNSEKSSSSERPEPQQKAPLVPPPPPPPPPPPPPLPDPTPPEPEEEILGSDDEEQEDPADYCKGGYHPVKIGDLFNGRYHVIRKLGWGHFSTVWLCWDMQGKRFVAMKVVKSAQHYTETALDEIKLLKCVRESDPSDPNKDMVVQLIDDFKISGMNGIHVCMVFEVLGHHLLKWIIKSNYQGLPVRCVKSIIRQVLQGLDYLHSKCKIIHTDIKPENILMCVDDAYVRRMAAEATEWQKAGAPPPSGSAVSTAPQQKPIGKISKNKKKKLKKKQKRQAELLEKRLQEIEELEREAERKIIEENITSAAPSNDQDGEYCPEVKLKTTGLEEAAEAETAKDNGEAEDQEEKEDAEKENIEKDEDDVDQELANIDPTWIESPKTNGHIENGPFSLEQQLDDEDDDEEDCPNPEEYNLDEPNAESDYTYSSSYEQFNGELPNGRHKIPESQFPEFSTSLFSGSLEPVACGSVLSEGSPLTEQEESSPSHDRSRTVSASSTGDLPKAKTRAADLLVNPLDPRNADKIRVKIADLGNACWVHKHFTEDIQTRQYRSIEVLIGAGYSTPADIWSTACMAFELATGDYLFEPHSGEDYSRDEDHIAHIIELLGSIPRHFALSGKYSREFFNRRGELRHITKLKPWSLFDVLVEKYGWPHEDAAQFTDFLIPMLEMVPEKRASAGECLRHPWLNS
Chain of Cyclin-dependent kinase 4 (Homo sapiens) (P11802 whole entry): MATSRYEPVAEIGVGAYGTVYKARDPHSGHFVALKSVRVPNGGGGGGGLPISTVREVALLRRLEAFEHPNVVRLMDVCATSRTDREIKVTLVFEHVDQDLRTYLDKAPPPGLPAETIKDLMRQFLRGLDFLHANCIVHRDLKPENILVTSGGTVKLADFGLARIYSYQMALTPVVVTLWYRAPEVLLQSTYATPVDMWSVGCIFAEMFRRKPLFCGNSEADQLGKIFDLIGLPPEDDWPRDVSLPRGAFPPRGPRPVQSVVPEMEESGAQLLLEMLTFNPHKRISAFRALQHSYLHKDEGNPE
Chain of Dual specificity mitogen-activated protein kinase kinase 1 (Homo sapiens) (Q02750 whole entry): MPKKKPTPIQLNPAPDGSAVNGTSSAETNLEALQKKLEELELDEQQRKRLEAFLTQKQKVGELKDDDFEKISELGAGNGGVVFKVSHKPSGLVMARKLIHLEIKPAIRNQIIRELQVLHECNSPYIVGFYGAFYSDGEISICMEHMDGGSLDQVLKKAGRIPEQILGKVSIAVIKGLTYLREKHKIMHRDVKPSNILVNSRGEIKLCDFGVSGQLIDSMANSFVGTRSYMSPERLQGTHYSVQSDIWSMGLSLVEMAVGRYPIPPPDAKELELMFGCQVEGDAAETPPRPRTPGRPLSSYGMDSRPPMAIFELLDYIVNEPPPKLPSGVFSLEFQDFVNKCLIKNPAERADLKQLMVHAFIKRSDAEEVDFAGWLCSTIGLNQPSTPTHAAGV

`CC(C)[C@H](NC(=O)c1cc(-c2cnn3cc(-c4ccc(OCCN5CCCCC5)cc4)cnc23)cs1)C(F)(F)F`: the inhibition (usually the relative decrease from the control value, in per cent) in test [1] stood at 7%. Moreover, the results for the fold change (FC) in test [2] and in test [3] were 0.01 and 0, respectively.

With `O=C(N[C@@H](C1CC1)C(F)(F)F)c1cc(-c2cnn3cc(-c4ccc(F)cc4)cnc23)cs1`, the fold change (FC) in test [4] turned out to be 0.01; in test [5], 0.64; in test [6] it was 0.

Consider `CNC(=O)c1ccccc1Oc1nc(Nc2cc(OC)c(OC)c(OC)c2)ncc1Br`, for which the inhibition is 0% in test [7] and 14% in test [8].
